Laboratory results from PubChem BioAssay (NCI).
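Briefly, cells in 96-well plates were exposed to five compound concentrations for 48 h, and endpoints were estimated by linear interpolation. TGI denotes the concentration required for complete inhibition of growth.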

Experiments:
Assay in all cases: growth of human tumour cells (NCI), 48 h
[1] = test system: SK-MEL-28 melanoma
[2] = test system: BT-549 breast
[3] = test system: OVCAR-5 ovarian
[4] = test system: PC-3 prostate
[5] = test system: 786-0 renal
[6] = test system: HS 578T breast
[7] = test system: MDA-MB-435
[8] = test system: MOLT-4 leukemia
[9] = test system: KM12 colon
[10] = test system: DU-145 prostate
[11] = test system: MCF7 breast
[12] = test system: RXF 393 renal
[13] = test system: HOP-92 NSCLC

C=CCNC(NCC=C)=C(C(Cl)=C(Cl)Cl)[N+](=O)[O-]
TGI [1]: > 100 µM | TGI [2]: 83.4 µM | TGI [3]: > 100 µM | TGI [4]: > 100 µM | TGI [5]: > 100 µM | TGI [6]: 54 µM | TGI [7]: > 100 µM | TGI [8]: 87.9 µM | TGI [9]: > 100 µM | TGI [10]: > 100 µM | TGI [11]: > 100 µM

Clc1cccc(Cl)c1C1SCc2nc3cc4ccccc4cc3n21 (configuration not stated)
TGI [1]: > 100 µM | TGI [12]: > 100 µM | TGI [2]: > 100 µM | TGI [3]: > 100 µM | TGI [4]: > 100 µM | TGI [5]: > 100 µM | TGI [6]: > 100 µM | TGI [7]: > 100 µM | TGI [8]: > 100 µM | TGI [9]: > 100 µM | TGI [10]: > 100 µM | TGI [11]: > 100 µM

COc1ccc(-c2cc(=O)c3c(O)c(OC)c(O)cc3o2)cc1O
TGI [1]: > 100 µM | TGI [12]: > 64.8 µM | TGI [2]: > 85.5 µM | TGI [3]: > 100 µM | TGI [4]: > 88.1 µM | TGI [5]: > 52.7 µM | TGI [6]: 87.3 µM | TGI [7]: > 100 µM | TGI [13]: > 85.9 µM | TGI [8]: 20.7 µM | TGI [9]: 18.6 µM | TGI [10]: > 100 µM | TGI [11]: 40.9 µM

O=c1oc2ccccc2c(O)c1C(c1ccc2ccccc2c1)c1c(O)c2ccccc2oc1=O
TGI [1]: 80.1 µM | TGI [12]: > 100 µM | TGI [2]: 60.8 µM | TGI [3]: 62 µM | TGI [4]: > 100 µM | TGI [5]: 74.7 µM | TGI [6]: 70.6 µM | TGI [7]: 59.7 µM | TGI [13]: > 100 µM | TGI [8]: 55.1 µM | TGI [9]: 40 µM | TGI [10]: > 100 µM | TGI [11]: > 100 µM

O=c1c2cc([N+](=O)[O-])cnc2sn1-c1ccc(Oc2ccccc2)cc1
TGI [1]: > 100 µM | TGI [2]: > 100 µM | TGI [3]: > 100 µM | TGI [4]: > 100 µM | TGI [5]: > 100 µM | TGI [6]: 96.5 µM | TGI [7]: > 100 µM | TGI [13]: 90.2 µM | TGI [8]: > 100 µM | TGI [9]: > 100 µM | TGI [10]: > 100 µM | TGI [11]: > 100 µM

CC(C)CC(=O)OC[n+]1cccc(-c2c(COC(=O)NC(C)C)c(COC(=O)NC(C)C)c3n2CCC3)c1
TGI [1]: > 100 µM | TGI [12]: > 100 µM | TGI [2]: > 100 µM | TGI [3]: > 100 µM | TGI [4]: > 100 µM | TGI [5]: 97.7 µM | TGI [6]: > 100 µM | TGI [7]: > 100 µM | TGI [13]: 76.9 µM | TGI [8]: > 100 µM | TGI [9]: > 100 µM | TGI [10]: 79.7 µM | TGI [11]: > 100 µM

C=C1[C@H](OCC(C)C)[C@@H](OCC(C)C)[C@@H](O)C(C)(C)/C=C/[C@H](C)C(=O)[C@@]2(O)C[C@H](C)[C@H](O)[C@@H]2[C@H]1OCC(C)C
TGI [12]: > 7.5 µM | TGI [2]: > 7.5 µM | TGI [3]: > 7.5 µM | TGI [4]: > 7.5 µM | TGI [5]: > 7.5 µM | TGI [6]: > 7.5 µM | TGI [7]: > 7.5 µM | TGI [13]: > 7.5 µM | TGI [8]: > 7.5 µM | TGI [9]: > 7.5 µM | TGI [10]: > 7.5 µM | TGI [11]: > 7.5 µM

CCC1=NC(N/N=C/c2ccccc2O)=N/C1=C\c1ccccc1O
TGI [1]: > 100 µM | TGI [12]: > 73.4 µM | TGI [2]: > 53.7 µM | TGI [3]: > 100 µM | TGI [4]: > 100 µM | TGI [5]: > 72.1 µM | TGI [6]: > 83.7 µM | TGI [7]: > 81.2 µM | TGI [13]: > 84 µM | TGI [8]: > 61.5 µM | TGI [9]: > 66.1 µM | TGI [10]: > 64.7 µM | TGI [11]: > 76.1 µM

CC(C(O)c1ccccc1)N(C)/N=N/c1nc2c([nH]1)c(=O)n(C)c(=O)n2C (configuration not stated)
TGI [1]: > 100 µM | TGI [12]: > 100 µM | TGI [2]: > 100 µM | TGI [3]: > 100 µM | TGI [4]: > 100 µM | TGI [5]: > 100 µM | TGI [6]: > 100 µM | TGI [7]: > 100 µM | TGI [8]: > 100 µM | TGI [9]: > 100 µM | TGI [10]: > 100 µM | TGI [11]: > 100 µM

CCOC(=O)c1c(-c2ccc(Cl)cc2)c(C#N)c(=S)n(C2OC(CO)C(O)C(O)C2O)c1-c1ccccc1 (configuration not stated)
TGI [1]: 38.7 µM | TGI [12]: 47.1 µM | TGI [2]: 61.3 µM | TGI [3]: 40.8 µM | TGI [4]: 50.4 µM | TGI [5]: 75.1 µM | TGI [6]: 58.6 µM | TGI [7]: 48.6 µM | TGI [13]: 42.6 µM | TGI [8]: 46.7 µM | TGI [9]: > 100 µM | TGI [10]: > 100 µM | TGI [11]: 50.5 µM

C=C(CO)[C@H]1CC/C(C)=C/CC/C(C)=C/C/C=C(\C)[C@H](O)C1
TGI [1]: 31.2 µM | TGI [12]: 42.1 µM | TGI [2]: 44.2 µM | TGI [3]: > 100 µM | TGI [4]: > 100 µM | TGI [5]: 57.5 µM | TGI [6]: 74.1 µM | TGI [7]: 35.8 µM | TGI [13]: 39.5 µM | TGI [8]: 44.2 µM | TGI [9]: 29.5 µM | TGI [10]: > 100 µM | TGI [11]: 60.8 µM

COc1ccc(OC)c2c(=O)cc(-c3ccccc3)[nH]c12
TGI [1]: > 100 µM | TGI [12]: > 100 µM | TGI [2]: > 100 µM | TGI [3]: > 100 µM | TGI [4]: > 100 µM | TGI [5]: > 100 µM | TGI [6]: > 100 µM | TGI [7]: > 100 µM | TGI [8]: > 100 µM | TGI [9]: > 100 µM | TGI [10]: > 100 µM | TGI [11]: > 100 µM

COc1c(C(=O)O)cccc1-c1cccc(C(=O)NCCN(CCNC(=O)c2cccc(-c3cccc(C(=O)O)c3OC)c2OC)CCNC(=O)c2cccc(-c3cccc(C(=O)O)c3OC)c2OC)c1OC
TGI [1]: > 100 µM | TGI [12]: > 100 µM | TGI [2]: > 100 µM | TGI [3]: > 100 µM | TGI [4]: > 100 µM | TGI [5]: > 100 µM | TGI [6]: 81.1 µM | TGI [7]: 34.3 µM | TGI [13]: > 100 µM | TGI [8]: > 100 µM | TGI [9]: > 100 µM | TGI [10]: > 100 µM | TGI [11]: > 100 µM

Cc1nc2c(n1CCCl)C(=O)c1ccccc1C2=O
TGI [1]: > 100 µM | TGI [12]: 46.2 µM | TGI [2]: 38.3 µM | TGI [3]: 36.3 µM | TGI [4]: 46.1 µM | TGI [5]: > 100 µM | TGI [6]: > 100 µM | TGI [7]: 28.6 µM | TGI [13]: 72.1 µM | TGI [8]: 78 µM | TGI [9]: > 100 µM | TGI [10]: > 100 µM | TGI [11]: 41.6 µM

CNC(=O)C(C)NC(=O)C(Cc1ccccc1)NC(=O)OC(C)(C)C (configuration not stated)
TGI [1]: > 100 µM | TGI [12]: > 100 µM | TGI [2]: > 100 µM | TGI [3]: > 100 µM | TGI [4]: > 100 µM | TGI [5]: > 100 µM | TGI [6]: > 100 µM | TGI [7]: > 100 µM | TGI [13]: > 100 µM | TGI [8]: > 100 µM | TGI [9]: > 100 µM | TGI [10]: > 100 µM | TGI [11]: > 100 µM

O=C(/C=C/c1c(O)c2ccccc2[nH]c1=O)CC(=O)C(=O)Nc1cccc(O)c1
TGI [1]: > 100 µM | TGI [2]: > 100 µM | TGI [3]: > 100 µM | TGI [4]: > 100 µM | TGI [5]: > 100 µM | TGI [6]: > 100 µM | TGI [7]: > 100 µM | TGI [13]: > 100 µM | TGI [8]: > 100 µM | TGI [9]: > 100 µM | TGI [10]: > 100 µM | TGI [11]: > 100 µM

Cc1ccc(-c2cnc(NC3OC(COC(=O)c4ccccc4)C(OC(=O)c4ccccc4)C(OC(=O)c4ccccc4)C3OC(=O)c3ccccc3)s2)cc1 (configuration not stated)
TGI [1]: > 100 µM | TGI [12]: > 100 µM | TGI [2]: > 100 µM | TGI [3]: > 100 µM | TGI [4]: > 100 µM | TGI [5]: > 100 µM | TGI [6]: > 100 µM | TGI [7]: > 100 µM | TGI [13]: > 100 µM | TGI [8]: > 100 µM | TGI [10]: > 100 µM | TGI [11]: > 100 µM
